The values below come from ChEMBL document CHEMBL1121992, “Synthesis and topical antiinflammatory activity of some steroidal [16 alpha, 17 alpha-d]Isoxazolidines” (1982).

For the assay, the system named is Mus musculus. Description: Topical antiinflammatory activity in mice, expressed as potency was determined. Format: functional.
`CC(=O)OCC(=O)[C@@]12ON(Cc3ccccc3)C[C@@H]1CC1C3CCC4=CC(=O)C=CC4(C)[C@H]3C(O)CC12C` (some centres not stated): the Potency was determined as 69.
The value for `CC(=O)OCC(=O)[C@@]12OC(C)(C)O[C@@H]1CC1C3CCC4=CC(=O)C=CC4(C)[C@H]3C(O)CC12C` (some centres not stated) was 102; that for `CC(=O)OCC(=O)[C@@]12N=C(C)O[C@@H]1CC1C3CCC4=CC(=O)C=CC4(C)[C@@]3(F)C(O)CC12C` (some centres not stated) was 104; that for `CC(=O)OCC(=O)[C@@]12ON(Cc3ccccc3)C[C@@H]1CC1C3CCC4=CC(=O)C=CC4(C)[C@@]3(F)C(O)CC12C` (some centres not stated) was 62.
Under `CC(=O)OCC(=O)[C@@]12OC(C)(C)O[C@@H]1CC1C3CCC4=CC(=O)C=CC4(C)[C@@]3(F)C(O)CC12C` (some centres not stated) stands 117; under `CC(=O)OCC(=O)[C@@]12ON(C)C[C@@H]1CC1C3CCC4=CC(=O)C=CC4(C)[C@H]3C(O)CC12C` (some centres not stated), 75; under `CC(=O)OCC(=O)[C@@]12ON(C)C[C@@H]1CC1C3CCC4=CC(=O)C=CC4(C)[C@@]3(F)C(O)CC12C` (some centres not stated), 156.
